Laboratory results from US9995734B2, “Human T cell line assay for evaluating the immunologic identity of glatiramer acetate preparations” (Mylan Inc., priority 2013, dated 2018).
Several values for one entry are separate records, joined by “and”; a condition that tells them apart may be missing. Equal entries are not always repeated.

How the values were obtained:
Assay type in all cases: cell-based, human
[1] = tested on: Donor 1 GMA Expanded T-Cell Lines (222-AG11, 222-AG12, 222-BA11, 222-BC11); test: ATP proliferation assay (CellTiter Glo), Donor 1 GMA expanded T-cell lines, incl. reactivity to non-canonical GA peptides; details: for Proliferation (luminescent ATP assay), Mean: T-cell line 222-AG12, autologous B-LCL
Procedure, shortened: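 GMA-expanded T-cell lines from Donor 1 restimulated with GMA (0–100 μg/mL), or with non-canonical GA peptides, COP and GMA (0–30 μg/mL; T cells 2×10^5 cells/mL). Mitomycin C-treated autologous PBMC or B-LCL served as APC. Proliferation read by CellTiter-Glo ATP luminescence after 3 days at 37° C.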

Donor 3 GMA T-Cell Lines = test: ATP proliferation assay (CellTiter Glo), Donor 3 GMA T-cell lines, incl. reactivity to non-canonical GA peptides; details: for proliferation response to non-canonical GA peptides: 0, 1, 3, 10 μg/mL; for Non-Canonical Peptide Reactivity: at least one proliferation value >=2 times no antigen control
Donor 4 COP T-Cell Lines = test: ATP proliferation assay (CellTiter Glo), Donor 4 COP T-cell lines, incl. reactivity to non-canonical GA peptides; details: for Non-Canonical Peptide Non-Reactivity: proliferation <2 times no antigen control; for Proliferation (luminescent ATP assay), Mean: T-cell line 205-1F4, Day 71, autologous B-LCL

## poly (Glu-Lys; 1:4) [GL 14]
[1]; 222-AG12, proliferation <2 times no antigen control
  Non-Canonical Peptide Non-Reactivity: GL 14
[1]; Donor 1 GMA expanded lines, stimulation with the non-canonical GA peptide
  Nonreactive T-Cell Line: 222-AG12 (Donor 1)
[1]; 1 ug/mL antigen
  Proliferation (luminescent ATP assay), Mean: 3531 RLU
[1]; 10 ug/mL antigen
  Proliferation (luminescent ATP assay), Mean: 55 RLU
[1]; 30 ug/mL antigen
  Proliferation (luminescent ATP assay), Mean: 43 RLU
Donor 3 GMA T-Cell Lines; 165-B5G and 165-E7G, Day 55
  proliferation response to non-canonical GA peptides: responded well
Donor 3 GMA T-Cell Lines; 165-B5G
  Non-Canonical Peptide Reactivity: GL 14
Donor 3 GMA T-Cell Lines; 165-C5G
  Non-Canonical Peptide Reactivity: GL 14
Donor 3 GMA T-Cell Lines; 165-E7G
  Non-Canonical Peptide Reactivity: GL 14
Donor 3 GMA T-Cell Lines; 165-E9G
  Non-Canonical Peptide Reactivity: GL 14
Donor 3 GMA T-Cell Lines; 165-F5G
  Non-Canonical Peptide Reactivity: GL 14
Donor 3 GMA T-Cell Lines; 165-F10G, 165-C5G, 165-H11G, 165-C7C, 165-E9G, 165-F5G, minimum 55 days in culture
  proliferation response to non-canonical GA peptides: responded well
Donor 3 GMA T-Cell Lines; 165-F10G
  Non-Canonical Peptide Reactivity: GL 14
Donor 3 GMA T-Cell Lines; 165-H11G
  Non-Canonical Peptide Reactivity: GL 14
Donor 3 GMA T-Cell Lines; Donor 3 GMA lines, at least a 50% increase in proliferation relative to a control after stimulation with the non-canonical GA peptide
  Reactive T-Cell Line: 165-B5G (Donor 3) and 165-C5G (Donor 3) and 165-E7G (Donor 3) and 165-E9G (Donor 3) and 165-F5G (Donor 3) and 165-F10G (Donor 3) and 165-H11G (Donor 3)
Donor 3 GMA T-Cell Lines; T-cell line 165-B5G, 1.25 μg/mL antigen, Day 55 of culturing, No Antigen Value 846
  Proliferation (luminescent ATP assay), Mean: 3912 RLU
Donor 3 GMA T-Cell Lines; T-cell line 165-B5G, 2.5 μg/mL antigen, Day 55 of culturing, No Antigen Value 846
  Proliferation (luminescent ATP assay), Mean: 3245 RLU
Donor 3 GMA T-Cell Lines; T-cell line 165-B5G, 5 μg/mL antigen, Day 55 of culturing, No Antigen Value 846
  Proliferation (luminescent ATP assay), Mean: 501 RLU
Donor 3 GMA T-Cell Lines; T-cell line 165-B5G, 10 μg/mL antigen, Day 55 of culturing, No Antigen Value 846
  Proliferation (luminescent ATP assay), Mean: 45 RLU
Donor 3 GMA T-Cell Lines; T-cell line 165-C5G, 1.25 μg/mL antigen, autologous B-LCL
  Proliferation (luminescent ATP assay), Mean: 1412 RLU
Donor 3 GMA T-Cell Lines; T-cell line 165-C5G, 2.5 μg/mL antigen, autologous B-LCL
  Proliferation (luminescent ATP assay), Mean: 5418 RLU
Donor 3 GMA T-Cell Lines; T-cell line 165-C5G, 5 μg/mL antigen, autologous B-LCL
  Proliferation (luminescent ATP assay), Mean: 703 RLU
Donor 3 GMA T-Cell Lines; T-cell line 165-C5G, 10 μg/mL antigen, autologous B-LCL
  Proliferation (luminescent ATP assay), Mean: 43 RLU
Donor 3 GMA T-Cell Lines; T-cell line 165-E7G, 1.25 μg/mL antigen, autologous B-LCL, Day 55
  Proliferation (luminescent ATP assay), Mean: 10001 RLU
Donor 3 GMA T-Cell Lines; T-cell line 165-E7G, 2.5 μg/mL antigen, autologous B-LCL, Day 55
  Proliferation (luminescent ATP assay), Mean: 14902 RLU
Donor 3 GMA T-Cell Lines; T-cell line 165-E7G, 5 μg/mL antigen, autologous B-LCL, Day 55
  Proliferation (luminescent ATP assay), Mean: 4087 RLU
Donor 3 GMA T-Cell Lines; T-cell line 165-E7G, 10 μg/mL antigen, autologous B-LCL, Day 55
  Proliferation (luminescent ATP assay), Mean: 58 RLU
Donor 3 GMA T-Cell Lines; T-cell line 165-E9G, 1.25 μg/mL antigen, autologous B-LCL
  Proliferation (luminescent ATP assay), Mean: 145 RLU
Donor 3 GMA T-Cell Lines; T-cell line 165-E9G, 2.5 μg/mL antigen, autologous B-LCL
  Proliferation (luminescent ATP assay), Mean: 801 RLU
Donor 3 GMA T-Cell Lines; T-cell line 165-E9G, 5 μg/mL antigen, autologous B-LCL
  Proliferation (luminescent ATP assay), Mean: 268 RLU
Donor 3 GMA T-Cell Lines; T-cell line 165-E9G, 10 μg/mL antigen, autologous B-LCL
  Proliferation (luminescent ATP assay), Mean: 38 RLU
Donor 3 GMA T-Cell Lines; T-cell line 165-F5G, 1.25 μg/mL antigen, autologous B-LCL
  Proliferation (luminescent ATP assay), Mean: 559 RLU
Donor 3 GMA T-Cell Lines; T-cell line 165-F5G, 2.5 μg/mL antigen, autologous B-LCL
  Proliferation (luminescent ATP assay), Mean: 2779 RLU
Donor 3 GMA T-Cell Lines; T-cell line 165-F5G, 5 μg/mL antigen, autologous B-LCL
  Proliferation (luminescent ATP assay), Mean: 89 RLU
Donor 3 GMA T-Cell Lines; T-cell line 165-F5G, 10 μg/mL antigen, autologous B-LCL
  Proliferation (luminescent ATP assay), Mean: 38 RLU
Donor 3 GMA T-Cell Lines; T-cell line 165-F10G, 1.25 μg/mL antigen, autologous B-LCL
  Proliferation (luminescent ATP assay), Mean: 5153 RLU
Donor 3 GMA T-Cell Lines; T-cell line 165-F10G, 2.5 μg/mL antigen, autologous B-LCL
  Proliferation (luminescent ATP assay), Mean: 19489 RLU
Donor 3 GMA T-Cell Lines; T-cell line 165-F10G, 5 μg/mL antigen, autologous B-LCL
  Proliferation (luminescent ATP assay), Mean: 1990 RLU
Donor 3 GMA T-Cell Lines; T-cell line 165-F10G, 10 μg/mL antigen, autologous B-LCL
  Proliferation (luminescent ATP assay), Mean: 53 RLU
Donor 3 GMA T-Cell Lines; T-cell line 165-H11G, 1.25 μg/mL antigen, autologous B-LCL
  Proliferation (luminescent ATP assay), Mean: 144 RLU
Donor 3 GMA T-Cell Lines; T-cell line 165-H11G, 2.5 μg/mL antigen, autologous B-LCL
  Proliferation (luminescent ATP assay), Mean: 4416 RLU
Donor 3 GMA T-Cell Lines; T-cell line 165-H11G, 5 μg/mL antigen, autologous B-LCL
  Proliferation (luminescent ATP assay), Mean: 118 RLU
Donor 3 GMA T-Cell Lines; T-cell line 165-H11G, 10 μg/mL antigen, autologous B-LCL
  Proliferation (luminescent ATP assay), Mean: 40 RLU
Donor 4 COP T-Cell Lines; 205-1F4
  Non-Canonical Peptide Non-Reactivity: GL 14
Donor 4 COP T-Cell Lines; 205-1H3, at 1 μg/mL of antigen
  reactivity to non-canonical GA peptide: showed reactivity
Donor 4 COP T-Cell Lines; 205-1H3, at least one proliferation value >=2 times no antigen control
  Non-Canonical Peptide Reactivity: GL 14
Donor 4 COP T-Cell Lines; 205-1H11
  Non-Canonical Peptide Non-Reactivity: GL 14
Donor 4 COP T-Cell Lines; Donor 4 COP lines, at least a 50% increase in proliferation relative to a control after stimulation with the non-canonical GA peptide
  Reactive T-Cell Line: 205-1H3 (Donor 4)
Donor 4 COP T-Cell Lines; Donor 4 COP lines, stimulation with the non-canonical GA peptide
  Nonreactive T-Cell Line: 205-1F4 (Donor 4) and 205-1H11 (Donor 4)
Donor 4 COP T-Cell Lines; 1 μg/mL antigen
  Proliferation (luminescent ATP assay), Mean: 12630
Donor 4 COP T-Cell Lines; 3 μg/mL antigen
  Proliferation (luminescent ATP assay), Mean: 1423
Donor 4 COP T-Cell Lines; 10 μg/mL antigen
  Proliferation (luminescent ATP assay), Mean: 158
Donor 4 COP T-Cell Lines; T-cell line 205-1H3, 1 μg/mL antigen, 0 μg/mL 4121.0
  Reactivity (proliferation), Mean: 15619.0
Donor 4 COP T-Cell Lines; T-cell line 205-1H3, 3 μg/mL antigen, 0 μg/mL 4121.0
  Reactivity (proliferation), Mean: 1053.3
Donor 4 COP T-Cell Lines; T-cell line 205-1H3, 10 μg/mL antigen, 0 μg/mL 4121.0
  Reactivity (proliferation), Mean: 61.0
Donor 4 COP T-Cell Lines; T-cell line 205-1H11, 1 μg/mL antigen, 0 μg/mL 6941
  Reactivity (proliferation), Mean: 5954 RLU
Donor 4 COP T-Cell Lines; T-cell line 205-1H11, 10 μg/mL antigen, 0 μg/mL 6941
  Reactivity (proliferation), Mean: 102 RLU
Donor 4 COP T-Cell Lines; T-cell line 205-1H11, 30 μg/mL antigen, 0 μg/mL 6941
  Reactivity (proliferation), Mean: 74 RLU
